{"source": "paper PMC8453745", "about": "“Human Mass Balance and Metabolite Profiling of [^14C]‐Pamiparib, a Poly (ADP‐Ribose) Polymerase Inhibitor, in Patients With Advanced Cancer” (Clinical Pharmacology in Drug Development, 2021)", "key": {"[1]": {"test": "plasma pamiparib pharmacokinetics in patients (LC‐MS/MS)", "assay_type": "in vivo, human", "settings": "for Cmax / half-life: plasma, po", "excerpt": "(§1) Part 1 of the study included a screening phase of up to 28 days prior to drug administration to assess eligibility. Patients were admitted to the clinical research unit (CRU) at Royal Liverpool University Hospital (Liverpool, UK)/Clatterbridge Cancer Centre NHS Foundation Trust (Bebington, Wirral, UK) on day −1 and received a single dose of 60‐mg/100 μCi [^14C]‐pamiparib orally the morning of day 1. Patients remained in the CRU until completion of assessments on day 7, when discharge criteria of ≈90% of the radioactive dose being recovered or <1% of the radioactive dose being recovered in urine and feces for 2 consecutive 24‐hour collection intervals were met. If discharge criteria were not met by day 7, patients collected 24‐hour excreta samples up to day 14 on an outpatient basis. Part 2 of the study, evaluating the safety/tolerability and antitumor activity of 60 mg twice‐daily pamiparib in patients with advanced and/or metastatic solid tumors, is ongoing and is not included in this report.\n(§2) Patients fasted overnight and 2 hours after oral administration of a single 60‐mg dose containing ≈100 μCi (3.7‐3.9 MBq) of [^14C]‐pamiparib with ≈240 mL of room‐temperature water or juice (orange or grape). The residual radioactivity present in each vial postdose was corrected from the dose. The radioactive dose of 100 μCi of [^14C]‐pamiparib provided minimum risk to patients according to the dosimetry calculation from a quantitative whole‐body autoradiography study in male and female Long Evans rats; the dose also provided sufficient signal for total radioactivity counting and quantitative radioprofiling in blood, plasma, and excreta (data on file). Patients were not permitted to lie in the supine position for 2 hours after drug administration, except if required because of an adverse event (AE) and/or study procedure.\n(§3) Total radioactivity was analyzed at Covance Laboratories (Harrogate, North Yorkshire, UK), and metabolite profiling was conducted at Covance Laboratories (Madison, Wisconsin). Determination of pamiparib concentrations in plasma and total radioactivity in plasma and whole blood was performed predose and 0.25, 0.5, 1, 1.5, 2, 2.5, 3, 6, 12, 24, 48, 72, 96, 120, and 144 hours postdose. Pamiparib concentrations in plasma and urine were determined at Covance Laboratories (Salt Lake City, Utah) with validated liquid chromatography‐tandem mass spectrometry (LC‐MS/MS) methods.\nAn aliquot of human plasma (25 μL) containing dipotassium ethylenediaminetetraacetic acid as anticoagulant or urine (25 μL) was added with the internal standard (20.0 μL of 400 ng/mL BGB‐326) in water:ACN (50:50 v/v) followed by the addition of water:ACN (50:50 v/v, 20.0 μL). The plasma samples were centrifugated and vortexed followed by the addition of 200 μL of 5% NH4OH and 100 μL of water. After centrifugation, the supernatant (50 μL) was loaded to Biotage Isolute supported liquid extraction plate (Biotage, Holliston, Massachusetts) and eluted with methyl tert‐butyl ether (700 μL). The eluted samples were dried down at 45°C in TurboVap for 30 minutes and reconstituted in 400 μL of water:MeOH (80:20 v/v), followed by LC‐MS/MS analysis. The urine samples were centrifuged and vortexed followed by the addition of 200 μL of ACN. After centrifugation, 100 μL of the samples was transferred to a plate followed by the addition of 300 μL of water. The samples were centrifugated again before LC‐MS/MS analysis. The LC‐MS/MS instrumentation was the same for plasma and urine analysis including a LEAP autosampler (LEAP Technologies, Chapel Hill, North Carolina), a Shimadzu SCL‐10A controller with LC‐10AD pump (Shimadzu, Columbia, Maryland), and a Sciex API 5000 mass spectrometer (Sciex, Framingham, Massachusetts) equipped with a XBridge Phenyl column (2.1 × 50 mm, 5 μm; Waters, Pleasanton, California). The mobile phase A is 10 mM ammonium formate in water, and mobile phase B is MeOH:ACN (50:50 v/v). […]"}, "[2]": {"test": "total radioactivity in plasma of patients (LSC)", "assay_type": "in vivo, human", "excerpt": "as §1\nas §2, with “Patients were not permitted to lie in the supine position for 2 hours after drug administration, except if required because of an adverse event (AE) and/or study procedure.” left out\nas §3\nTotal radioactivity concentrations of [^14C]‐pamiparib in whole blood, plasma, urine, and feces were determined by liquid scintillation counting (LSC). Radioactivity in each sample was measured for 5 minutes using a Packard Tri‐Carb liquid scintillation counter model 2100TR, 2900TR, or 3100TR (Canberra Packard, Pangbourne, Berks, Australia) with the facilities for computing quench‐corrected disintegrations per minute. […] Quantitation of the metabolites present in plasma, urine, and feces was based on the profiles of radioactivity. […]"}, "[3]": {"settings": "single oral 60 mg/100 μCi, n = 4"}}, "note": "Values joined by “and” are separate entries in the source; they are usually repeats but may differ in a detail not shown here. Identical values can stand only once. Like-named read-outs stand apart in the source and are kept apart here."}
{"smiles": "C[C@]12CCCN1CC1=NNC(=O)c3cc(F)cc4[nH]c2c1c34", "note": "[Pamiparib]", "values": [{"measurement": "geometric coefficient of variation of parent AUCs among 4 subjects", "setting": "[1]", "value": "< 22", "unit": "%"}, {"measurement": "AUC", "setting": "[1]; human, oral, 60 mg, as printed in discussion, read-out: AUC0‐t, geometric mean (LC‐MS/MS)", "value": 29200, "unit": "ng·h/mL"}, {"measurement": "Cmax", "setting": "[1]; human, 60 mg, single oral 60 mg/100 μCi, n = 4, read-out: Cmax, arithmetic mean (SD)", "value": 2210, "unit": "ng/mL"}, {"measurement": "Cmax", "setting": "[1]; human, 60 mg, single oral 60 mg/100 μCi, n = 4, read-out: Cmax, geometric mean (CV%)", "value": 2190, "unit": "ng/mL"}, {"measurement": "half-life", "setting": "[1]; human, 60 mg, single oral 60 mg/100 μCi, n = 4, read-out: t1/2, arithmetic mean (SD) (converted)", "value": 29.2, "unit": "h"}, {"measurement": "half-life", "setting": "[1]; human, 60 mg, single oral 60 mg/100 μCi, n = 4, read-out: t1/2, geometric mean (CV%) (converted)", "value": 28.7, "unit": "h"}, {"measurement": "Tmax", "setting": "[1]; human, single oral 60 mg/100 μCi, n = 4, read-out: tmax, median (min, max)", "value": 2, "unit": "h"}, {"measurement": "CL/F, arithmetic mean (SD)", "setting": "[1]; [3]", "value": "2.25 (0.55) L/h"}, {"measurement": "CL/F, geometric mean (CV%)", "setting": "[1]; [3]", "value": "2.21 (23.2) L/h"}, {"measurement": "CL/F, geometric mean (CV%)", "setting": "[1]; single oral 60 mg/100 μCi, n = 4, listed as pamiparib", "value": "≈ 2.2 L/h and 2.21 L/h"}, {"measurement": "geometric mean AUC0‐t of pamiparib (LC‐MS/MS) as percent of total radioactivity in plasma", "setting": "[2]", "value": "~69.9", "unit": "%"}, {"measurement": "geometric mean AUC0‐∞ of pamiparib (LC‐MS/MS) as percent of total radioactivity in plasma", "setting": "[2]", "value": "~69.4", "unit": "%"}, {"measurement": "geometric mean Cmax of pamiparib (LC‐MS/MS) as percent of total radioactivity in plasma", "setting": "[2]", "value": "≈ 91.6%"}, {"measurement": "AUC0‐∞ ratio plasma pamiparib/total radioactivity, geometric mean (CV%)", "setting": "[2]; n = 4", "value": "0.694 (2.7)"}]}
